Laboratory results from ChEMBL document CHEMBL4038351, “Structure-Guided Development of Covalent and Mutant-Selective Pyrazolopyrimidines to Target T790M Drug Resistance in Epidermal Growth Factor Receptor” (J Med Chem, 2017).
Values after ≈ are worked out from the molar mass of the structure shown. Active and inactive are the calls of the source. The calls are words filed in the database; no cut-off is given here.

Columns and labels:
[1] = molecular target: Epidermal growth factor receptor (Homo sapiens, UniProt P00533, L858R/T790M)
NCI-H1975 [2] = experiment: Antiproliferative activity against human NCI-H1975 cells harboring EGFR-L858R/T790M double mutant at 30 uM incubated for 96 hrs measured on day 5 by CellTiterGlo assay; assay type: functional, cell-based
A-431 [3] = experiment: Antiproliferative activity against human A431 cells expressing wild type EGFR at 30 uM incubated for 96 hrs measured on day 5 by CellTiterGlo assay; assay type: cell-based; conditions: a-431, 96 h
A549 [4] = experiment: Antiproliferative activity against human A549 cells harboring KRAS-G12S mutant at 30 uM incubated for 96 hrs measured on day 5 by CellTiterGlo assay; assay type: cell-based; conditions: a549, 96 h
[5] = molecular target: Epidermal growth factor receptor (Homo sapiens, UniProt P00533)
HCC827 [6] = experiment: Antiproliferative activity against human HCC827 cells harboring EGFR-delE746_A750 mutant at 30 uM incubated for 96 hrs measured on day 5 by CellTiterGlo assay; assay type: functional, cell-based
[7] = molecular target: Epidermal growth factor receptor (Homo sapiens, UniProt P00533, L858R)
[8] = Permeability of the compound at 500 uM incubated for 20 hrs by PAMPA; assay type: physicochemical
[9] = Kinetic solubility in Hepes buffer at 500 uM at pH 7.4 after 90 mins; assay type: physicochemical; conditions: read-out: Kinetic_solubility
[10] = Apparent permeability across apical to basolateral side in human Caco2 cells at 5 uM incubated for 2 hrs; assay type: ADME, cell-based, Caco-2; conditions: Caco-2
A-431 [11] = experiment: cells; assay type: ADME, cell-based; conditions: Homo sapiens
Description: Antiproliferative activity against human A431 cells expressing wild type EGFR incubated for 96 hrs measured on day 5 by CellTiterGlo assay

HCC827 [12] = experiment: cells; assay type: functional, cell-based; conditions: Homo sapiens
Description: Antiproliferative activity against human HCC827 cells harboring EGFR-delE746_A750 mutant incubated for 96 hrs measured on day 5 by CellTiterGlo assay

[13] = Metabolic stability in human plasma at 5 uM incubated for 1 hr by LC-MS method; assay type: ADME, cell-free; conditions: read-out: Stability
[14] = system: Epidermal growth factor receptor (Homo sapiens), P00533 [L858R,T790M]; experiment: Covalent binding affinity to human recombinant GST-tagged EGFR L858R/T790M double mutant expressed in baculovirus expression system by mass spectrometry
[15] = Fraction unbound in mouse 100% plasma at 5 uM incubated for 6 hrs by LC-MS method; assay type: ADME, cell-free
[16] = Metabolic stability in mouse plasma at 5 uM incubated for 1 hr by LC-MS method; assay type: ADME, cell-free; conditions: read-out: Stability
NCI-H1975 [17] = experiment: cells; assay type: functional, cell-based; conditions: Homo sapiens
[18] = Apparent permeability across basolateral to apical side in human Caco2 cells at 5 uM incubated for 2 hrs; assay type: ADME, cell-based, Caco-2; conditions: Caco-2
A549 [19] = experiment: cells; assay type: ADME, cell-based; conditions: Homo sapiens
Description: Antiproliferative activity against human A549 cells harboring KRAS-G12S mutant incubated for 96 hrs measured on day 5 by CellTiterGlo assay

in vitro [20] = conditions: mouse, liver microsomes
in vitro [21] = conditions: human, liver microsomes
in vitro [22] = conditions: human, Caco-2
Description: Efflux ratio of apparent permeability from basolateral side to apical side over apical side to basolateral side over in human Caco2 cells at 5 uM incubated for 2 hrs

Mus musculus [23] = experiment: Toxicity in RjOrl:SWISS (CD1) mouse at 20 mg/kg, po administered via gavage; assay type: organism-based; conditions: in vivo
Mus musculus [24] = experiment: Time duration during which free plasma concentration stays above in vitro EC50 for human NCI-H1975 cells harboring EGFR-L858R/T790M double mutant in RjOrl:SWISS (CD1) mouse at 20 mg/kg, ip
[25] = Oral bioavailability in RjOrl:SWISS (CD1) mouse plasma at 20 mg/kg administered via gavage; assay type: ADME, organism-based
[26] = Clearance in RjOrl:SWISS (CD1) mouse plasma at 2 mg/kg, iv; assay type: ADME, organism-based
[27] = Ratio of free Cmax in RjOrl:SWISS (CD1) mouse plasma at 20 mg/kg, ip to EC50 for antiproliferative activity against human NCI-H1975 cells harboring EGFR-L858R/T790M double mutant
Mus musculus [28] = experiment: Toxicity in RjOrl:SWISS (CD1) mouse at 20 mg/kg, ip; assay type: organism-based; conditions: in vivo
[29] = Initial concentration in RjOrl:SWISS (CD1) mouse plasma at 2 mg/kg, iv; assay type: ADME, organism-based
[30] = Ratio of total Cmax in RjOrl:SWISS (CD1) mouse plasma at 20 mg/kg, ip to EC50 for antiproliferative activity against human NCI-H1975 cells harboring EGFR-L858R/T790M double mutant
Mus musculus [31] = experiment: Toxicity in RjOrl:SWISS (CD1) mouse at 2 mg/kg, iv; assay type: organism-based; conditions: in vivo
[32] = Half life in RjOrl:SWISS (CD1) mouse plasma at 20 mg/kg, po administered via gavage; assay type: ADME, organism-based
[33] = AUC in RjOrl:SWISS (CD1) mouse plasma at 20 mg/kg, po administered via gavage; assay type: ADME, organism-based
Mus musculus [34] = experiment: Time duration during which total plasma concentration stays above in vitro EC50 for human NCI-H1975 cells harboring EGFR-L858R/T790M double mutant in RjOrl:SWISS (CD1) mouse at 20 mg/kg, ip
[35] = Half life in RjOrl:SWISS (CD1) mouse plasma at 20 mg/kg, ip; assay type: ADME, organism-based
[36] = AUC in RjOrl:SWISS (CD1) mouse plasma at 20 mg/kg, ip; assay type: ADME, organism-based
Mus musculus [37] = experiment: Bioavailability in RjOrl:SWISS (CD1) mouse plasma at 20 mg/kg, ip; assay type: ADME, organism-based; conditions: in vivo
[38] = Volume of distribution at steady state in RjOrl:SWISS (CD1) mouse plasma at 2 mg/kg, iv; assay type: ADME, organism-based; conditions: read-out: Vdss
[39] = Half life in RjOrl:SWISS (CD1) mouse plasma at 2 mg/kg, iv; assay type: ADME, organism-based
[40] = Cmax in RjOrl:SWISS (CD1) mouse plasma at 20 mg/kg, po administered via gavage; assay type: ADME, organism-based; design: dose 20 mg/kg, route oral
Mus musculus [41] = experiment: Free Cmax in RjOrl:SWISS (CD1) mouse plasma at 20 mg/kg, ip; assay type: ADME, organism-based; conditions: in vivo
[42] = Total Cmax in RjOrl:SWISS (CD1) mouse plasma at 20 mg/kg, ip; assay type: ADME, organism-based; design: dose 20 mg/kg, route intraperitoneal
[43] = AUC in RjOrl:SWISS (CD1) mouse plasma at 2 mg/kg, iv; assay type: ADME, organism-based

## CCC(=O)N1CCC[C@@H](n2nc(-c3ccccc3)c3c(N)ncnc32)C1
[1]
  IC50: > 10 µM
NCI-H1975 [2]
  Activity: inactive
A-431 [3]
  Activity: Non-Toxic
A549 [4]
  Activity: Non-Toxic
[5]
  IC50: 7.3 µM
HCC827 [6]
  Activity: inactive
[7]
  IC50: 4.7 µM

## C=CC(=O)N1CCC[C@@H](n2nc(-c3ccc4ccccc4c3)c3c(N)ncnc32)C1
[8]
  permeability: 73%
[1]
  IC50: < 0.001 µM
[9]
  solubility kinetic at 1.5 h, 500 µM: 248 µM (≈ 98.8 µg/mL)
[10]
  Papp A→B at 2 h, 5 µM: 0.51 ×10⁻⁶ cm/s
A-431 [11]
  EC50: 3.6 µM
HCC827 [12]
  EC50: < 0.014 µM
[13]
  remaining at 1 h, 5 µM: 94%
[14]
  Activity: Active
[15]
  fraction unbound at 6 h, 5 µM: 0.02
[16]
  remaining at 1 h, 5 µM: 86%
[5]
  IC50: 0.02 µM
NCI-H1975 [17]
  EC50: 0.14 µM
[18]
  Papp B→A at 2 h, 5 µM: 0.13 ×10⁻⁶ cm/s
A549 [19]
  EC50: 11.6 µM
In vitro [20]
  microsomal CLint at 50 min, 3 µM: 2310 µL/min/mg
In vitro [21]
  microsomal CLint at 50 min, 3 µM: 770 µL/min/mg
[7]
  IC50: 0.001 µM
In vitro [22]
  efflux ratio at 2 h, 5 µM: 0.3

## CCC(=O)N1CCC[C@@H](n2nc(-c3ccc(F)cc3)c3c(N)ncnc32)C1
[1]
  IC50: > 10 µM
NCI-H1975 [2]
  Activity: inactive
HCC827 [12]
  EC50: 25.9 µM
A-431 [3]
  Activity: Non-Toxic
A549 [4]
  Activity: Non-Toxic
[5]
  IC50: > 10 µM
[7]
  IC50: 5 µM

## CCC(=O)N1CCC[C@@H](n2nc(-c3cccc(F)c3)c3c(N)ncnc32)C1
[1]
  IC50: > 10 µM
NCI-H1975 [2]
  Activity: inactive
HCC827 [12]
  EC50: 22.3 µM
A-431 [3]
  Activity: Non-Toxic
A549 [4]
  Activity: Non-Toxic
[5]
  IC50: > 10 µM
[7]
  IC50: 3.4 µM

## C=CC(=O)N1CCC[C@@H](n2nc(-c3cn(C)c4ccccc34)c3c(N)ncnc32)C1
Mus musculus [23]
  Activity: Non-Toxic
[8]
  permeability: 66%
[1]
  IC50: 0.003 µM
[9]
  solubility kinetic at 1.5 h, 500 µM: 364 µM (≈ 146 µg/mL)
[10]
  Papp A→B at 2 h, 5 µM: 0.3 ×10⁻⁶ cm/s
A-431 [11]
  EC50: 6.78 µM
Mus musculus [24]
  Time: 30 min
HCC827 [12]
  EC50: 0.09 µM
[25]
  bioavailability: 2.4%
[13]
  remaining at 1 h, 5 µM: 95%
[26]
  clearance: 277 mL/min/kg
[27]
  Ratio: 6
Mus musculus [28]
  Activity: Non-Toxic
[14]
  Activity: Active
[29]
  C0: 138 ng/mL
[30]
  Ratio: 50
Mus musculus [31]
  Activity: Non-Toxic
[32]
  half-life: 35.4 min
[15]
  fraction unbound at 6 h, 5 µM: 0.12
[16]
  remaining at 1 h, 5 µM: 100%
[33]
  AUC: 29 ng·h/mL
[5]
  IC50: 0.04 µM
Mus musculus [34]
  Time: 75 min
NCI-H1975 [17]
  EC50: 0.23 µM
[18]
  Papp B→A at 2 h, 5 µM: 0.29 ×10⁻⁶ cm/s
A549 [19]
  EC50: 23.3 µM
[35]
  half-life: 14.4 min
[36]
  AUC: 1890 ng·h/mL
Mus musculus [37]
  F: 156%
[38]
  Vd: 12.4 L/kg
In vitro [20]
  microsomal CLint at 50 min, 3 µM: 1980 µL/min/mg
[39]
  half-life: 36 min
[40]
  Cmax: 38 ng/mL
In vitro [21]
  microsomal CLint at 50 min, 3 µM: 462 µL/min/mg
Mus musculus [41]
  fCmax: 1.36 µM
[7]
  IC50: 0.002 µM
In vitro [22]
  efflux ratio at 2 h, 5 µM: 1
[42]
  Cmax: 4540 ng/mL
[43]
  AUC: 121 ng·h/mL
